Measurements: patent US11834434B2, “Substituted 2-heteroaryloxypyridines and salts thereof and their use as herbicidal agents” (Bayer Aktiengesellschaft, priority 2018, dated 2023)

Key:
Format in all cases: in vivo
[1] = test system: Setaria viridis (SETVI); assay: Pre-emergence herbicidal action against Setaria viridis; details: 1280 g/ha; scored visually after about 3 weeks vs untreated controls; 100% = plants have died, 0% = like control plants
Text: (§1) Seeds of mono- and dicotyledonous weed plants were placed in plastic pots in sandy loam soil (doubly sown with in each case one species of mono- or dicotyledonous weed plants per pot) and covered with soil. The compounds of the invention, formulated in the form of wettable powders (WP) or as emulsion concentrates (EC), were then applied onto the surface of the covering soil as aqueous suspension or emulsion with addition of 0.5% additive at a water application rate of 600 liters per hectare (converted). After the treatment, the pots were placed in a greenhouse and kept under good growth conditions for the test plants. After about 3 weeks, the effect of the preparations was scored visually in comparison with untreated controls as percentages. For example, 100% activity=the plants have died, 0% activity=like control plants. Tables C1 to C8 below show the effects of selected compounds of the general formula (I) according to Table 1 on various harmful plants and an application rate corresponding to 1280 g/ha, which were obtained by the experimental procedure mentioned above.

[2] = test system: Matricaria inodora (MATIN); assay: Pre-emergence herbicidal action against Matricaria inodora; details: 1280 g/ha; scored visually after about 3 weeks vs untreated controls; 100% = plants have died, 0% = like control plants
Text: as §1

[3] = test system: Poa annua (POAAN); assay: Pre-emergence herbicidal action against Poa annua; details: 1280 g/ha; scored visually after about 3 weeks vs untreated controls; 100% = plants have died, 0% = like control plants
Text: as §1

[4] = test system: Lolium rigidum (LOLRI); assay: Pre-emergence herbicidal action against Lolium rigidum; details: 1280 g/ha; scored visually after about 3 weeks vs untreated controls; 100% = plants have died, 0% = like control plants
Text: as §1

[5] = test system: Echinochloa crus-galli (ECHCG); assay: Pre-emergence herbicidal action against Echinochloa crus-galli; details: 1280 g/ha; scored visually after about 3 weeks vs untreated controls; 100% = plants have died, 0% = like control plants
Text: as §1

[6] = test system: Abutilon theophrasti (ABUTH); assay: Post-emergence herbicidal action against Abutilon theophrasti; details: 1280 g/ha; rated visually after about 3 weeks vs untreated controls; 100% = plants have died, 0% = like control plants
Procedure: (§2) Seeds of mono- and dicotyledonous weed plants were placed in plastic pots in sandy loam soil (doubly sown with in each case one species of mono- or dicotyledonous weed plants per pot), covered with soil and cultivated in a greenhouse under controlled growth conditions. 2 to 3 weeks after sowing, the test plants were treated at the one-leaf stage. The compounds of the invention, formulated in the form of wettable powders (WP) or as emulsion concentrates (EC), were applied onto the green parts of the plants as aqueous suspension or emulsion with addition of 0.5% additive at a water application rate of 600 liters per hectare (converted). After the test plants had been kept in the greenhouse under optimum growth conditions for about 3 weeks, the activity of the preparations was rated visually in comparison to untreated controls. For example, 100% activity=the plants have died, 0% activity=like control plants. Tables B1 to B8 below show the effects of selected compounds of the general formula (I) according to Table 1 on various harmful plants and an application rate corresponding to 1280 g/ha, which were obtained by the experimental procedure mentioned above.

[7] = test system: Amaranthus retroflexus (AMARE); assay: Pre-emergence herbicidal action against Amaranthus retroflexus; details: 1280 g/ha; scored visually after about 3 weeks vs untreated controls; 100% = plants have died, 0% = like control plants
Text: as §1

[8] = test system: Echinochloa crus-galli (ECHCG); assay: Post-emergence herbicidal action against Echinochloa crus-galli; details: 1280 g/ha; rated visually after about 3 weeks vs untreated controls; 100% = plants have died, 0% = like control plants
Procedure: as §2

[9] = test system: Poa annua (POAAN); assay: Post-emergence herbicidal action against Poa annua; details: 1280 g/ha; rated visually after about 3 weeks vs untreated controls; 100% = plants have died, 0% = like control plants
Procedure: as §2

[10] = test system: Stellaria media (STEME); assay: Pre-emergence herbicidal action against Stellaria media; details: 1280 g/ha; scored visually after about 3 weeks vs untreated controls; 100% = plants have died, 0% = like control plants
Text: as §1

[11] = test system: Abutilon theophrasti (ABUTH); assay: Pre-emergence herbicidal action against Abutilon theophrasti; details: 1280 g/ha; scored visually after about 3 weeks vs untreated controls; 100% = plants have died, 0% = like control plants
Text: as §1

[12] = test system: Stellaria media (STEME); assay: Post-emergence herbicidal action against Stellaria media; details: 1280 g/ha; rated visually after about 3 weeks vs untreated controls; 100% = plants have died, 0% = like control plants
Procedure: as §2

[13] = test system: Amaranthus retroflexus (AMARE); assay: Post-emergence herbicidal action against Amaranthus retroflexus; details: 1280 g/ha; rated visually after about 3 weeks vs untreated controls; 100% = plants have died, 0% = like control plants
Procedure: as §2

[14] = test system: Matricaria inodora (MATIN); assay: Post-emergence herbicidal action against Matricaria inodora; details: 1280 g/ha; rated visually after about 3 weeks vs untreated controls; 100% = plants have died, 0% = like control plants; column head prints STEME
Procedure: as §2

SMILES | Pre-emergence action against Setaria viridis (SETVI) [1] [%] | Pre-emergence action against Matricaria inodora (MATIN) [2] [%] | Pre-emergence action against Poa annua (POAAN) [3] [%] | Pre-emergence action against Lolium rigidum (LOLRI) [4] [%] | Pre-emergence action against Echinochloa crus-galli (ECHCG) [5] [%] | Post-emergence action against Abutilon theophrasti (ABUTH) [6] [%] | Pre-emergence action against Amaranthus retroflexus (AMARE) [7] [%] | Post-emergence action against Echinochloa crus-galli (ECHCG) [8] [%] | Post-emergence action against Poa annua (POAAN) [9] [%] | Pre-emergence action against Stellaria media (STEME) [10] [%] | Pre-emergence action against Abutilon theophrasti (ABUTH) [11] [%] | Post-emergence action against Stellaria media (STEME) [12] [%] | Post-emergence action against Amaranthus retroflexus (AMARE) [13] [%] | Post-emergence action against Matricaria inodora (MATIN) [14] [%]
Cc1ccnc(Oc2ncccn2)c1Sc1ccc(F)cc1F [Example I-210] | 100 | 100 | 100 | 100 | 100 | 90 | 100 | 90 | 100 | 100 | 100 |  |  | 
Cc1ccnc(Oc2ncccn2)c1Sc1ccccc1 [Example I-216, 2-[(4-Methyl-3-phenylsulfanyl-2-pyridyl)oxy]pyrimidine] | 100 | 100 | 100 | 90 | 100 | 100 | 100 | 100 | 100 | 100 | 100 | 100 | 100 | 
Cc1ccc(Cc2ccc(F)cc2F)c(Oc2ncccn2)n1 [Example I-444] | 100 | 100 | 100 | 90 |  |  | 100 |  | 100 | 100 |  | 90 |  | 90
Cc1cc(C)c(Cc2ccccc2)c(Oc2ncc(F)cn2)n1 [Example I-478, 2-[(3-Benzyl-4,6-dimethyl-2-pyridyl)oxy]-5-fluoropyrimidine] | 100 | 100 | 100 | 100 | 100 | 100 | 100 | 90 | 100 | 100 | 100 | 100 | 100 | 90
Cc1cc(C)c(Cc2ccc(F)cc2)c(Oc2ncc(F)cn2)n1 [Example I-479] | 100 | 100 | 100 | 100 | 100 | 100 | 100 | 100 | 100 | 100 | 100 | 100 | 100 | 100
